Laboratory results published in patent US20150051210A1, “Tyrosine Kinase Inhibitor Combinations and their Use” (Novartis AG, priority 2012, published 2015).

Assays:
MG-63 cells = assay: Combination assay (concentration matrix, resazurin, Loewe synergy) in MG-63; format: cell-based; settings: MG-63, semi-solid media
Protocol: (§1) Combinatorial anti-proliferative effects of Cpd. B (“B) in the tables below) and BGJ398 (“C” in the tables below) were measured in KYM-1, MG-63, and Hs-683 cells on 96-well-plates using the concentration matrix depicted below:
(§2) Cells were grown under three different conditions (see FIG. 7): Experiments labeled “monolayer” were conducted on regular tissue culture plates, allowing cells to adhere and eventually form a monolayer. Cells were seeded on 3 plates per experiment (triplicates) in standard growth media as described above at a density of 5000 per well. Six to eight wells on a separate plate were seeded to quantify the amount of viable cells at the point of compound addition. […] At the same time, viable cells on the separate plate mentioned above were quantified using a resazurin sodium salt dye reduction readout. […] Quantification of Synergy was done using the methods described in G. R. Zimmermann et al., Drug Discovery Today, Vol. 12, No. ½, 2007, pages 34 to 42, and especially J. Lehár et al., Nature Biotechnology Vol. 27, No. 7, 2009, pages 659 to 666, in short by iteratively calculating the Loewe additive response ILoewe (X, Y) at each dose matrix point from the single-agent response curves, and then summing the differences between ILoewe and the experimental data. […]

[1] = test system: patient-derived non-small cell lung cancer xenograft LXFL 1121; assay: In vivo anti-tumor efficacy study in xenograft LXFL 1121; settings: for anti-tumor effect compared to vehicle control / Δ tumor volume: Cpd. B 10 mg/kg bid/qd; for anti-tumor effect compared to vehicle control: BGJ398 40 mg/kg qd orally, 18 days; for Δ tumor volume: end values, BGJ398 40 mg/kg qd, control C 309.6
Protocol: The in vivo anti-tumor efficacy study in the patient-derived non-small cell lung cancer xenograft LXFL 1121 was carried out. Xenografts were grown subcutaneously in nude mice. Eight tumor-bearing mice each were treated with either vehicle control, Cpd. B alone, BGJ398 alone or both drugs in combination at the doses and frequencies indicated. Note that frequency of Cpd. […] Tumor volumes were measured on the indicated days and synergy of the combination treatment was assessed by the method of Clarke, R., Breast Cancer Res. Treat., […].
Mice bearing xenografts derived from this model were randomized to 4 groups that were then treated with a vehicle control, Cpd. B as single agent, BGJ398 as single agent or a combination of both drugs. Cpd. B was commenced at a dose of 10 mg/kg twice daily. BGJ398 was given orally at a dose of 40 mg/kg once daily, and the same regimen for both drugs was used in combination. […] The study was continued in this setup until day 18.
The significance of combination data was assessed using the method presented by Clark (2), which can estimate interactions from limited data. For compound A, B or the combination AB (with control group C), the end values are collected. Antagonism is predicted when the calculation AB/C>A/C×B/C, additive AB/C=A/C×B/C, synergistic interactions are predicted to occur when […].

KYM-1 cells = assay: Combination assay (concentration matrix, resazurin, Loewe synergy) in KYM-1; format: cell-based; settings: KYM-1, checkerboard layout, monolayer / non-adherent / semi-solid media
Protocol: as §1, §2

[2] = Δ tumor volume relative to control group C

| Compound | growth inhibition (MG-63 cells) | anti-tumor effect compared to vehicle control [1] | Δ tumor volume [1] | B/C [1, 2] | growth suppression (KYM-1 cells) | A/C [1, 2] |
| --- | --- | --- | --- | --- | --- | --- |
| CCN1CCN(c2ccc(Nc3cc(N(C)C(=O)Nc4c(Cl)c(OC)cc(OC)c4Cl)ncn3)cc2)CC1 [BGJ398, 3-(2,6-dichloro-3,5-dimethoxy-phenyl)-1-{6-[4-(4-ethylpiperazin-1-yl)-phenylamino]-pyrimidin-4-yl}-1-methyl-urea] | strong growth inhibition | strong tumor growth inhibition resulting in stable disease | −16.6 | −0.054 | partial growth suppression |  |
| CNC(=O)c1ccc(-c2cnc3ncc(Cc4ccc5ncccc5c4)n3n2)cc1F [Cpd. B, 2-fluoro-N-methyl-4-[(7-quinolin-6-yl-methyl)-imidazo[1,2-b]triazin-2-yl]benzamide] |  | very modest, statistically not significant anti-tumor effect | 333.6 |  | no effect | 1.078 |
